Consider 26 molecules from patent US12091398B2, “PD-L1 antagonist compound” (ADLAI NORTYE BIOPHARMA CO., LTD., priority 2019, dated 2024).

The subject of one assay is PD-1/PD-L1 interaction. The assay can be described thus: Cell based PD-1/PD-L1 NFAT reporter assay. On the set-up: species or system human. The conditions noted are these: Homo sapiens, 6 h, PD-1/NFAT-Reporter-Jurkat cells co-cultured with TCR activator/PD-L1-CHO cells; 6 hour incubation; luciferase; calibrated to Atezolizumab 10 nM; read-out: Absolute EC50. How it is done:
Cell Based PD-1/PD-L1 NFAT Reporter Assay
Compounds of the present patent were tested in a cell based PD-1/PD-L1 NFAT reporter assay.
The cell-based luciferase reporter assay is used for monitoring the PD-1/PD-L1 inhibitor by characterizing the biological activity of PD-1: PD-L1 interactions in cellular context. PD-1/NFAT-Reporter-Jurkat cells stably over-expressing human PD-1 with NFAT reporter are used as effector cells. TCR activator/PD-L1—CHO cells over-expressing PD-L1 and an engineered T cell receptor (TCR) activator are used as target cells. When these two cells are co-cultivated, TCR complexes on effector cells are activated by TCR activator on target cells, resulting in expression of the NFAT luciferase reporter. However, PD1 and PD-L1 (or PD-L2) ligation prevents TCR activation and suppresses the NFAT-responsive luciferase activity. This inhibition can be specifically reversed by anti-PD1 or anti-PD-L1 inhibitors. PD1/PD-L1 inhibitors block PD1:PD-L1 interaction and promote TCR activation, resulting in reactivation of the NFAT responsive luciferase reporter.
PD-1/NFAT—Reporter—Jurkat cell (Cat: 60535) and TCR activator/PD-L1—CHO cell (Cat: 60536) were purchased from BPS Bioscience. Anti-human PD-L1 antibody (Atezolizumab, Cat: A2004) was purchased from Selleck; luciferase reporter gene expression detection kit (ONE-Glo™ Luciferase Assay System, Cat: E6120) was purchased from Promega; multifunction plate reader (SpectraMax i3x) was purchased from Molecular Devices.
PD-1/NFAT—Reporter—Jurkat cells and TCR activator/PD-L1—CHO cells were cultured in recommended media respectively.
Harvest TCR activator/PD-L1-CHO cells from culture and seed cells at a density of 35,000 cells per well into 96-well microplate in 100 µl of growth medium. Incubate cells at 37° C. in a CO2 incubator overnight. Next day, discard the culture media, add diluted compound in assay medium for 30 min. Anti-PD-L1 antibody (Atezolizumab, final concentration 10 nM) and 0.1% DMSO were the positive and negative control, respectively. Harvest the PD-1/NFAT-reporter-Jurkat cells by centrifugation and add to the wells. After 6 hour incubation, perform luciferase assay using the ONE-Glo™ Luciferase Assay System, following the manufacturer's assay protocol.
Anti-PD-L1 antibody (Atezolizumnab, 10 nM) was used as positive control to calibrate the inhibition rate using the following equation: % inhibition=(Sample luminescence/Average vehicle group luminescence−1)/(Average PD-L1 group luminescence/Average vehicle group luminescence−1)×100%.
As for `COc1cc(Cn2ncc3c(-c4cccc(COc5cc(OC)c(CN[C@@H](CO)C(=O)O)cc5Cl)c4C)cccc32)c(Cl)cc1CN[C@@H](CO)C(=O)O` [Compound 66, (4-((3-(1-(4-((((S)-1-carboxy-2-hydroxyethyl)amino)methyl)-2-chloro-5-methoxybenzyl)-1H-indazol-4-yl)-2-methylbenzyl)oxy)-5-chloro-2-methoxybenzyl)-L-serine], the EC50 came to 307 nM.

With `COc1cc(Cn2ncc3c(-c4cccc(COc5cc(OCc6cncc(C#N)c6)c(CN[C@@H](CO)C(=O)O)cc5Cl)c4C)cccc32)c(Cl)cc1CN[C@@H](CO)C(=O)O` [Compound 67, (4-((4-(3-((4-((((S)-1-carboxy-2-hydroxyethyl)amino)methyl)-2-chloro-5-((5-cyanopyridin-3-yl)methoxy)phenoxy)methyl)-2-methylphenyl)-1H-indazol-1-yl)methyl)-5-chloro-2-methoxybenzyl)-L-serine], the EC50 came out at 89 nM.

On to `COc1cc(OCc2cccc(-c3cccc4c3cnn4Cc3cc(OCc4cncc(C#N)c4)c(CNCCO)cc3Cl)c2C)c(Cl)cc1CNCCO` [Compound 68, 5-((4-chloro-5-((4-(3-((2-chloro-4-(((2-hydroxyethyl)amino)methyl)-5-methoxyphenoxy)methyl)-2-methylphenyl)-1H-indazol-1-yl)methyl)-2-(((2-hydroxyethyl)amino)methyl)phenoxy)methyl)nicotinonitrile], for which the EC50 was 348 nM.

As for `COc1cc(OCc2cccc(-c3cccc4c3cnn4Cc3cc(OCc4cncc(C#N)c4)c(CNC[C@@H]4CCC(=O)N4)cc3Cl)c2C)c(Cl)cc1CNC[C@@H]1CCC(=O)N1` [Compound 69, 5-((4-chloro-5-((4-(3-((2-chloro-5-methoxy-4-(((((S)-5-oxopyrrolidin-2-yl)methyl)amino)methyl)phenoxy)methyl)-2-methylphenyl)-1H-indazol-1-yl)methyl)-2-(((((S)-5-oxopyrrolidin-2-yl)methyl)amino)methyl)phenoxy)methyl)nicotinonitrile], the EC50 came out at 157 nM.

Take `COc1cc(OCc2cccc(-c3cccc4c3cnn4Cc3cc(OCc4cncc(C#N)c4)c(CN4CCC(C)(C(=O)O)C4)cc3Cl)c2C)c(Cl)cc1CN1CCC(C)(C(=O)O)C1` (centres unmarked) [Compound 70, 1-(4-((3-(1-(4-((3-carboxy-3-methylpyrrolidin-1-yl)methyl)-2-chloro-5-((5-cyanopyridin-3-yl)methoxy)benzyl)-1H-indazol-4-yl)-2-methylbenzyl)oxy)-5-chloro-2-methoxybenzyl)-3-methylpyrrolidine-3-carboxylic acid]: the EC50 is 5850 nM.

Consider `Cc1c(COc2cc(OCc3cncc(C#N)c3)c(CNCCO)cc2Cl)cccc1-c1cccc2c1cnn2Cc1cc(OCc2cncc(C#N)c2)c(CNCCO)cc1Cl` [Compound 71], for which the half-maximal effective concentration (EC50) came to 134 nM.

`COc1cc(OCc2cccc(-c3cccc4c3cnn4Cc3cc(OCc4cncc(C#N)c4)c(CN)cc3Cl)c2C)c(Cl)cc1CN` [Compound 72]: the concentration for a half-maximal effect (EC50) was above 1110 nM.

On to `COc1cc(OCc2cccc(-c3cccc4c3cnn4Cc3cc(OCc4cncc(C#N)c4)c(CN)cc3Cl)c2C)c(Cl)cc1CN[C@@H](CO)C(=O)O` [Compound 73], for which the EC50 was found to be 448 nM.

For `COc1cc(OCc2cccc(-c3cccc4c3cnn4Cc3cc(OCc4cncc(C#N)c4)c(CN[C@@H](CO)C(=O)O)cc3Cl)c2C)c(Cl)cc1CN` [Compound 74], the EC50 was 2700 nM.

Turning to `Cc1c(COc2cc(OCc3cncc(C#N)c3)c(CN)cc2Cl)cccc1-c1cccc2c1cnn2Cc1cc(OCc2cncc(C#N)c2)c(CN)cc1Cl` [Compound 75], the half-maximal effective concentration (EC50) is 2830 nM.

Turning to `COc1nc(-c2cccc(-c3cccc4c3cnn4Cc3cc(OCc4cncc(C#N)c4)c(CN[C@@H](CO)C(=O)O)cc3Cl)c2Cl)ccc1CNC[C@@H]1CCC(=O)N1` [Compound 76], the EC50 was found to be 34 nM.

For the molecule `N#Cc1cncc(COc2cc(Cn3ncc4c(-c5cccc(-c6ccc(CNC[C@@H]7CCC(=O)N7)cc6)c5Cl)cccc43)c(Cl)cc2CN[C@@H](CO)C(=O)O)c1` [Compound 77], the 50% effective concentration (EC50) amounted to 28 nM.

As for `COc1cc(OCc2cccc(-c3cccc4c3c(C)nn4Cc3cc(OCc4cncc(C#N)c4)c(CN[C@@H](CO)C(=O)O)cc3Cl)c2C)c(Cl)cc1CN[C@@H](CO)C(=O)O` [Compound 78], the EC50 amounted to 1600 nM.

With `N#Cc1cncc(COc2cc(OCc3cccc(-c4cccc5c4cnn5CCCCN4CC[C@@H](O)C4)c3Br)c(Cl)cc2CN2CC[C@H](O)C2)c1` [Compound 79], the EC50 is above 370 nM.

Consider `N#Cc1cncc(COc2cc(OCc3cccc(-c4cccc5c4cnn5CCCCN4CC[C@@H](O)C4)c3Br)c(Cl)cc2CNCCO)c1` [Compound 80], for which the EC50 worked out at 318 nM.

With `C[C@H](CO)NCc1cc(Cl)c(OCc2cccc(-c3cccc4c3cnn4CCCCN3CC[C@@H](O)C3)c2Br)cc1OCc1cncc(C#N)c1` [Compound 81], the EC50 was 221 nM.

Regarding `N#Cc1cncc(COc2cc(OCc3cccc(-c4cccc5c4cnn5CCCCN4CC[C@@H](O)C4)c3Br)c(Cl)cc2CN2CC[C@@H](O)C2)c1` [Compound 82], the EC50 is 339 nM.

As to `N#Cc1cncc(COc2cc(OCc3cccc(-c4cccc5c4cnn5CCCCN4CC[C@@H](O)C4)c3Br)c(Cl)cc2CNC[C@@H]2CCC(=O)N2)c1` [Compound 83], the EC50 came out at 232 nM.

Consider `CC1(C(=O)O)CCN(Cc2cc(Cl)c(OCc3cccc(-c4cccc5c4cnn5CCCCN4CC[C@@H](O)C4)c3Br)cc2OCc2cncc(C#N)c2)C1` (some centres unmarked) [Compound 84], for which the concentration for a half-maximal effect (EC50) is 1750 nM.

As to `N#Cc1cncc(COc2cc(OCc3cccc(-c4cccc5c4cnn5CCCCN4CC[C@@H](O)C4)c3Br)c(Cl)cc2CN2CCCC2)c1` [Compound 85], the 50% effective concentration (EC50) was above 370 nM.

`N#Cc1cncc(COc2cc(OCc3cccc(-c4cccc5c4cnn5CCCCNC[C@@H]4CCC(=O)N4)c3Br)c(Cl)cc2CN[C@@H](CO)C(=O)O)c1` [Compound 86]: the EC50 turned out to be 214 nM.

Consider `N#Cc1cncc(COc2cc(OCc3cccc(-c4cccc5c4cnn5CCCNC[C@@H]4CCC(=O)N4)c3Br)c(Cl)cc2CN[C@@H](CO)C(=O)O)c1` [Compound 87, (4-((2-bromo-3-(1-(3-((((S)-5-oxopyrrolidin-2-yl)methyl)amino)propyl)-1H-indazol-4-yl)benzyl)oxy)-5-chloro-2-((5-cyanopyridin-3-yl)methoxy)benzyl)-L-serine], for which the EC50 was found to be 98 nM.

Regarding `Cc1c(OCCCN2CC[C@@H](O)C2)cccc1-c1ccnc2c1cnn2Cc1cc(OCc2cncc(C#N)c2)c(CN[C@@H](CO)C(=O)O)cc1Cl` [Compound 88, (5-chloro-2-((5-cyanopyridin-3-yl)methoxy)-4-((4-(3-(3-((R)-3-hydroxypyrrolidin-1-yl)propoxy)-2-methylphenyl)-1H-pyrazolo[3,4-b]pyridin-1-yl)methyl)benzyl)-L-serine], the EC50 was 1030 nM.

Take `Cc1c(OCCCN2CC[C@@H](O)C2)cccc1-c1cncc2c1cnn2Cc1cc(OCc2cncc(C#N)c2)c(CN[C@@H](CO)C(=O)O)cc1Cl` [Compound 89, (5-chloro-2-((5-cyanopyridin-3-yl)methoxy)-4-((4-(3-(3-((R)-3-hydroxypyrrolidin-1-yl)propoxy)-2-methylphenyl)-1H-pyrazolo[3,4-c]pyridin-1-yl)methyl)benzyl)-L-serine]: the EC50 was determined as 5450 nM.

As to `COc1cc(Cn2ccc3c(-c4cccc(-c5ccc(CNC[C@@H]6CCC(=O)N6)cc5)c4Cl)cccc32)c(Cl)cc1CN[C@@H](CO)C(=O)O` [Compound 91, (5-chloro-4-((4-(2-chloro-4′-(((((S)-5-oxopyrrolidin-2-yl)methyl)amino)methyl)-[1,1′-biphenyl]-3-yl)-1H-indol-1-yl)methyl)-2-methoxybenzyl)-L-serine], the EC50 was 518 nM.

The assay is the same for the next values; noted with them: Homo sapiens; PD-1/NFAT-Reporter-Jurkat cells co-cultured with TCR activator/PD-L1-CHO cells; 6 hour incubation; luciferase; calibrated to Atezolizumab 10 nM; read-out: Absolute EC50.
In the case of `N#Cc1cncc(COc2cc(Cn3ncc4c(-c5cccc(OCc6ccc(CN7CC[C@@H](O)C7)cc6)c5Cl)cccc43)c(Cl)cc2CN[C@@H](CO)C(=O)O)c1` [Compound 90, (5-chloro-4-((4-(2-chloro-3-((4-(((R)-3-hydroxypyrrolidin-1-yl)methyl)benzyl)oxy)phenyl)-1H-indazol-1-yl)methyl)-2-((5-cyanopyridin-3-yl)methoxy)benzyl)-L-serine], the concentration for a half-maximal effect (EC50) worked out at 1060 nM.
